From publication PMC10708028, “Target Screen of Anti-Hyperuricemia Compounds from Cortex Fraxini In Vivo Based on ABCG2 and Bioaffinity Ultrafiltration Mass Spectrometry” (Molecules, 2023)

Biological target: T1, ABCG2 (Homo sapiens, UniProt Q9UNQ0)
T1 construct: Recombinant ABCG2
T1 sequence (Q9UNQ0 1-655): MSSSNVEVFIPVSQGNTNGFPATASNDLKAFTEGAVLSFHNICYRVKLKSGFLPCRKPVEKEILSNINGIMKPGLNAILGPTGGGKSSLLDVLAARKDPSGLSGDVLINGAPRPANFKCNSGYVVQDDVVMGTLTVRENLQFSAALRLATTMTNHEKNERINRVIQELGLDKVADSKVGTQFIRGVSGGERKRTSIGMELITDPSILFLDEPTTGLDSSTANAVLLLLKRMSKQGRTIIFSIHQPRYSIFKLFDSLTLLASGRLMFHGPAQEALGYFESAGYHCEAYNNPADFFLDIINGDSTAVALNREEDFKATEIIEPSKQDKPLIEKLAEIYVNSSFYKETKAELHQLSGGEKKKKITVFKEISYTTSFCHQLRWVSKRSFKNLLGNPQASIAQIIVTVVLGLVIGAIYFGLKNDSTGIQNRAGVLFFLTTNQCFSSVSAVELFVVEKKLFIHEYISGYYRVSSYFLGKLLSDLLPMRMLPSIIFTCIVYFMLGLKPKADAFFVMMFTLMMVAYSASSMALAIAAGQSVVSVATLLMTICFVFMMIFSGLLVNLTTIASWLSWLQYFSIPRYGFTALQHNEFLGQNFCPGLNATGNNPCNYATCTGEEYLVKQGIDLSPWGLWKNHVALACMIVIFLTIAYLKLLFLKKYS
Type: binding

Kd: 141 µM
SMILES: COc1cc2ccc(=O)oc2c(O[C@@H]2O[C@H](CO)[C@@H](O)[C@H](O)[C@H]2O)c1O [fraxin]
